Values quoted from earlier work, collected in US6576227B1, “Peroxidase-activating oral compositions” (Oraceutical Innovative Properties, LLC, priority 1995, dated 2003).

Tests used:
[1] = 20° C.
cellular DNA = settings: elevated concentrations (greater than about 0.1 percent or about 29 millimoles per liter)

water solubility [1] [grams per liter]	concentration of saturated solution ([1]; water) [%]	pH upon dissolution, 1% solution (1% solution in water)	pH, saturated solution (saturated solution in water)	SMILES	mutagenicity and cellular DNA damage (cellular DNA)
800	44.4	approximately 4.05	approximately 3.40	NC(N)=O.OO [Carbamide peroxide]	
				OO [hydrogen peroxide]	mutagenic
